# Assays:
# people with ALS = conditions: cited from earlier work
# [1] = tested on: patients suffering from amyotrophic lateral sclerosis (ALS); assay: Study AB10015: randomized, double-blind, placebo-controlled phase 2/3 study of masitinib in combination with riluzole versus placebo in combination with riluzole (interim and final analysis); assay type: in vivo, human; conditions: for Δ ALSFRS-R = (least squares means) change from baseline to week 48 in ALSFRS-R score: mITT; for Delta [CI] = absolute difference between subpopulations in Δ ALSFRS-R: in points
# Excerpt: There are two distinct populations of ALS patients: a subpopulation of “normal progressors” and a subpopulation of “faster progressors”. The targeted population for primary analysis is the subpopulation of “normal progressors”. “Normal progressors” are defined as ALS patients whose progression of ALSFRS-R score before randomization is less than 1.1 point per month. This population should represent about 80% of ALS patients. The population of “normal progressors+faster progressors” comprises all ALS patients, “normal progressor” ALS patients or “faster progressor” ALS patients. “Faster progressors” are defined as ALS patients whose progression of ALSFRS-R score before randomization is greater than or equal to 1.1 points per month. Main Inclusion Criteria: • Female or male patient aged between 18 and 75 years of age, with a weight >50 kg and body mass index between 18 and 35 kg/m^2; • Familial or sporadic ALS; • Patient diagnosed with laboratory supported, clinically probable or definite ALS according to the World Federation of Neurology Revised El Escorial criteria [Brooks B R. […] For the morning dose, tablets were taken during breakfast. In case of nausea, the administration took place during lunch. For the evening dose, tablets were taken during dinner. Modified Intent-To-Treat (mITT) dataset—The mITT population will include all ITT patients with probable or definite amyotrophic lateral sclerosis who took at least one dose of study treatment (masitinib or placebo). Change from baseline to week 48 in the revised Amyotrophic Lateral Sclerosis Functional Rating Scale (ALSFRS-R) In accordance with study AB10015 protocol, an interim analysis was planned to be performed after around 50% of the information became available for analysis. At the time of the interim analysis, 192 (50%) out of a planned 381 patients who had been randomized before the 12 Feb. 2015 could have reached the week 48 visit. […] The interim analysis primary endpoint is based on the change from baseline to week 48 in ALSFRS-R. Primary analysis was performed in the mITT “normal progressor” (i.e. non-aggressive or moderately aggressive ALS) subpopulation. […] Missing values of ALSFRS-R at study visit were replaced based on the Modified Last Observation Carried Forward (mLOCF) method. Absolute change from baseline to week 48 in ALSFRS-R was estimated using a model of analysis of covariance (ANCOVA) adjusted on following factors: treatment (masitinib or placebo), and stratification criteria of: ALS patient subpopulation, progression of ALSFRS-R score (point/month) from date of first symptom to baseline, ALSFRS-R score at baseline, site of onset (bulbar versus others), age at baseline; and geographical region. Two-sided (1-alpha) confidence interval of the difference of mean change from baseline to week 48 between groups was calculated. The primary analysis used a re-randomization test. The re-randomization test, also referred to as a randomization test or permutation test, is a type of statistical significance test in which the distribution of the test statistic under the null hypothesis is obtained by calculating all possible values of the test statistic under rearrangements of the labels on the observed data points. The proportion of replicates for which the p-value of treatment factor is at least as small as the p-value of treatment factor from the original data was calculated. In this proportion the observed p-value of treatment factor is also accounted for as one replicate in numerator and denominator. This proportion is the p-value for the randomization test. […] To control overall family-wise type I error rate at the study level, analyses of efficacy was conducted in a stepwise manner (fixed sequence method). Fixed sequence method ensures that the population claimed and treated with a selected dosage will be done by controlling the global family-wise error rate at the 0.0311 level for the primary analysis. […]
compound,measurement,setting,value
"Nc1nc2ccc(OC(F)(F)F)cc2s1 [riluzole, 6-(trifluoromethoxy)benzothiazol-2-amine]",effect on patient function,people with ALS; any of the randomized trials considered separately,no beneficial effect
same,effect on bulbar and limb function,"people with ALS; data of the trials combined, not on muscle strength, to be interpreted with caution",small beneficial effect
same,safety of the drug,"people with ALS; riluzole 100 mg, meta-analysis",not a major concern
"Cc1ccc(NC(=O)c2ccc(CN3CCN(C)CC3)cc2)cc1Nc1nc(-c2cccnc2)cs1 [Masitinib (4.5), 4-(4-methylpiperazin-1-ylmethyl)-N-[4-methyl-3-(4-pyridin-3ylthiazol-2-ylamino)phenyl]benzamide]",Δ ALSFRS-R = (least squares means) change from baseline to week 48 in ALSFRS-R score,"[1]; final AB10015, faster progressor subgroup (≥1.1 pts/m), masitinib 4.5 mg/kg/day plus riluzole, comparison with placebo arm",−17.9268
same,Δ ALSFRS-R = (least squares means) change from baseline to week 48 in ALSFRS-R score,"[1]; final AB10015, masitinib 4.5 mg/kg/day treated faster progressors (≥1.1 pts/m), comparison moderately aggressive vs faster progressors",−25.0567
same,Δ ALSFRS-R = (least squares means) change from baseline to week 48 in ALSFRS-R score,"[1]; final AB10015, masitinib 4.5 mg/kg/day treated faster progressors (≥1.1 pts/m), comparison non-aggressive vs faster progressors",−18.2920
same,Δ ALSFRS-R = (least squares means) change from baseline to week 48 in ALSFRS-R score,"[1]; final AB10015, masitinib 4.5 mg/kg/day treated moderately aggressive (≥0.8 to <1.1 pts/m), comparison moderately aggressive vs faster progressors",−15.7258
same,Δ ALSFRS-R = (least squares means) change from baseline to week 48 in ALSFRS-R score,"[1]; final AB10015, masitinib 4.5 mg/kg/day treated moderately aggressive plus aggressive (≥0.8 pts/m), comparison with non-aggressive",−15.9080
same,Δ ALSFRS-R = (least squares means) change from baseline to week 48 in ALSFRS-R score,"[1]; final AB10015, masitinib 4.5 mg/kg/day treated non-aggressive (<0.8 pts/m), comparison non-aggressive vs faster progressors",−7.4509
same,Δ ALSFRS-R = (least squares means) change from baseline to week 48 in ALSFRS-R score,"[1]; final AB10015, masitinib 4.5 mg/kg/day treated non-aggressive (<0.8 pts/m), comparison non-aggressive vs moderately aggressive plus aggressive",−7.8085
same,Delta [CI] = absolute difference between subpopulations in Δ ALSFRS-R,"[1]; final AB10015, masitinib 4.5 mg/kg/day treated patients, moderately aggressive (≥0.8 to <1.1 pts/m) vs faster progressors (≥1.1 pts/m), week 48, CI [−19.4226, 0.761], P=0.0687",−9.3308[−19.4226;
same,Delta [CI] = absolute difference between subpopulations in Δ ALSFRS-R,"[1]; final AB10015, masitinib 4.5 mg/kg/day treated patients, non-aggressive (<0.8 pts/m) vs moderately aggressive plus aggressive (≥0.8 pts/m), week 48, CI [−12.3719, −3.8271], P=0.0003",−8.0995[−12.3719;
same,Δ ALSFRS-R = (least squares means) change from baseline to week 48 in ALSFRS-R score,"[1]; final AB10015, non-aggressive subgroup (<0.8 pts/m), masitinib 4.5 mg/kg/day plus riluzole, comparison with placebo arm",−8.2552
same,Δ ALSFRS-R = (least squares means) change from baseline to week 48 in ALSFRS-R score,"[1]; final AB10015, normal progressor subgroup (<1.1 pts/m), masitinib 4.5 mg/kg/day plus riluzole, comparison with placebo arm",−8.7045
same,Δ ALSFRS-R = (least squares means) change from baseline to week 48 in ALSFRS-R score,"[1]; final AB10015, overall study population (normal progressor and faster progressor), masitinib 4.5 mg/kg/day plus riluzole, comparison with placebo arm",−10.7019
same,conclusion on treatment effectiveness,"[1]; final analysis, ALS patients with progression of ALSFRS-R score prior to treatment initiation of less than 1.1 points per month",effective treatment
same,Δ ALSFRS-R = (least squares means) change from baseline to week 48 in ALSFRS-R score,"[1]; final analysis, masitinib 4.5 mg/kg/day treated faster progressors (>1.1 pts/m), comparison normal vs faster progressors",−19.5855
same,Δ ALSFRS-R = (least squares means) change from baseline to week 48 in ALSFRS-R score,"[1]; final analysis, masitinib 4.5 mg/kg/day treated normal progressors (<1.1 pts/m), comparison normal vs faster progressors",−8.3939
same,Δ ALSFRS-R = (least squares means) change from baseline to week 48 in ALSFRS-R score,"[1]; final analysis, moderately aggressive subgroup (≥0.8 to <1.1 pts/m), masitinib 4.5 mg/kg/day plus riluzole, comparison with placebo arm",−11.0031
same,conclusion on treatment effectiveness,"[1]; final analysis, progression of ALSFRS-R score of at least 1.1 points per month (aggressive ALS)",ineffective treatment
same,conclusion on treatment effectiveness,"[1]; final analysis, progression of ALSFRS-R score of less than 0.8 points per month (non-aggressive ALS)",most effective
same,conclusion on treatment effectiveness,"[1]; final analysis, progression of ALSFRS-R score of ≥0.8 to <1.1 points per month (moderately aggressive ALS), to a lesser extent than non-aggressive",effective
same,difference between treatment-arms (masitinib versus placebo) in ALSFRS-R change from baseline to week 48,"[1]; final, faster progressors subpopulation (≥1.1 points per month), 4.5 mg/kg/day",No significant difference
same,average decrease in ALSFRS-R score,"[1]; final, masitinib 4.5 mg/kg/day treated faster progressors, week 48",19.6 points
same,average decrease in ALSFRS-R score,"[1]; final, masitinib 4.5 mg/kg/day treated normal progressors, week 48",8.4 points
same,difference in decrease of ALSFRS-R score between normal progressors and faster progressors,"[1]; final, masitinib 4.5 mg/kg/day treated patients, week 48, P<0.001",11.2 points
same,treatment effect in terms of ALSFRS-R score of moderately aggressive ALS patients over aggressive ALS patients,"[1]; final, masitinib treated, ≥0.8 to <1.1 vs ≥1.1 points per month",strong trend in treatment effect
same,"retardation in ALSFRS-R score, difference masitinib versus placebo","[1]; final, moderately aggressive ALS patients (≥0.8 to <1.1 points per month), 4.5 mg/kg/day, week 48",2.2 points
same,change in ALSFRS-R score,"[1]; final, moderately aggressive ALS patients (≥0.8 to <1.1 points per month), masitinib 4.5 mg/kg/day, week 48, placebo −13.2",−11 points
same,"retardation in ALSFRS-R score, difference masitinib versus placebo","[1]; final, non-aggressive ALS patients (<0.8 points per month), 4.5 mg/kg/day, week 48",3.4 points
same,change in ALSFRS-R score,"[1]; final, non-aggressive ALS patients (<0.8 points per month), masitinib 4.5 mg/kg/day, week 48, placebo −11.7",−8.3 points
same,difference in ALSFRS-R score between masitinib and placebo,"[1]; final, normal progressors (<1.1 points per month), 4.5 mg/kg/day, week 48",3.4 points
same,average decrease in ALSFRS-R score,"[1]; final, normal progressors (<1.1 points per month), masitinib 4.5 mg/kg/day, week 48, placebo −12.1, P=0.0142",8.7 points
same,difference between treatment-arms (masitinib versus placebo) in ALSFRS-R change from baseline to week 48,"[1]; final, overall study population (normal progressor and faster progressor patients), 4.5 mg/kg/day, P=0.11",no significant difference
same,Δ ALSFRS-R = (least squares means) change from baseline to week 48 in ALSFRS-R score,"[1]; interim AB10015, faster progressor subgroup (≥1.1 points/month), masitinib 4.5 mg/kg/day plus riluzole, comparison with placebo arm",−20.77
same,Δ ALSFRS-R = (least squares means) change from baseline to week 48 in ALSFRS-R score,"[1]; interim AB10015, masitinib 4.5 mg/kg/day treated faster progressors (≥1.1 points/month), subpopulation comparison normal vs faster",−17.90
same,Δ ALSFRS-R = (least squares means) change from baseline to week 48 in ALSFRS-R score,"[1]; interim AB10015, masitinib 4.5 mg/kg/day treated normal progressors (<1.1 points/month), subpopulation comparison normal vs faster",−5.57
same,Δ ALSFRS-R = (least squares means) change from baseline to week 48 in ALSFRS-R score,"[1]; interim AB10015, normal progressor subgroup (<1.1 points/month), masitinib 4.5 mg/kg/day plus riluzole, comparison with placebo arm",−9.02
same,difference between treatment-arms (masitinib versus placebo) in ALSFRS-R change from baseline to week 48,"[1]; interim, faster progressor subpopulation, 4.5 mg/kg/day",No significant difference
same,average decrease in ALSFRS-R score,"[1]; interim, masitinib 4.5 mg/kg/day treated faster progressor (aggressive ALS) patients, week 48",17.9 points
same,average decrease in ALSFRS-R score,"[1]; interim, masitinib 4.5 mg/kg/day treated normal progressor (non-aggressive or moderately aggressive ALS) patients, week 48",5.57 points
same,average decrease in ALSFRS-R score,"[1]; interim, normal progressors, masitinib 4.5 mg/kg/day, baseline to week 48, placebo 14.51, P=0.0032",9.02 points
